This note sets out measurements from publication PMC6278537, “Simultaneous Determination and Pharmacokinetics Study of Six Triterpenes in Rat Plasma by UHPLC-MS/MS after Oral Administration of Sanguisorba officinalis L. Extract” (Molecules, 2018).

Series [1] can be described thus: Pharmacokinetic study in rats after single oral administration of S. officinalis extract (UHPLC-MS/MS of plasma). Particulars: for Cmax / AUC(0-inf) / AUC(0-t) / Tmax / half-life: rat plasma, single oral dose of S. officinalis extract 0.015 g/kg, n = 12, mean ± SD; for time of first peak of mean plasma concentration-time curve (double-peak phenomenon) / time of second peak of mean plasma concentration-time curve (double-peak phenomenon): rats, after oral administration of S. officinalis extract, Figure 4. Type of series: in vivo, Sprague-Dawley rats. The method, then: The UHPLC-MS/MS method was successfully used in the pharmacokinetic studies of six analytes after single dose administration of S. officinalis extract in rats. Based on the body surface area calculations of people and the animals and equivalent dose conversion calculations, the dosage of the rats was 0.015 g/kg. The half-time (t1/2), maximum plasma concentration (Cmax), time to reach Cmax (Tmax), and area under concentration–time curve (AUC0→t and AUC0→∞) were calculated via non-compartmental analysis (Table 6). The pharmacokinetic parameters of six components were reckoned by means of non-compartmental analysis using DAS 2.0 (Shanghai, China).
The experimental protocol was permitted by the Animal Ethics Committee of Harbin Medical University and conformed to the principles for the Care and Use of Laboratory Animals. Twelve male Sprague-Dawley rats (Weight 200 ± 20 g) were provided by the Laboratory Animal Centre of Harbin Medical University (Harbin, China). Each rat was fasted for 12 h before giving the drug and had free water supply even during the experiment. The S. officinalis extract was dissolved in water. A single dose of the S. officinalis extract (0.015 g/kg) was administrated to the rats. Blood (0.3 mL) was gained from the retinal venous plexus at 0, 0.083, 0.25, 0.5 1.0, 1.5, 2.0, 3.0, 4.0, 6.0, 8.0, 12.0 and 24.0 h after dosing. The plasma was immediately separated by centrifugation at 12000 rpm for 5 min at […].
Ten microliters of IS (1040.0 ng/mL) solution and 100 μL of methanol were added to 100 μL aliquot of plasma sample and vortexed for 30 s. The mixture was extracted with 3 mL ethyl acetate by being vortex-mixed for 1 min. The supernatant was separated and evaporated to dryness by N2 blowing at 40 °C after centrifuging at 3800 rpm for 5 min. The residue was reconstituted with 100 μL of methanol, and then vortex-mixed for 2 min and filtered by a 0.22 μm nylon 66 organic membrane. This was followed by injection of 5 μL aliquot of the solution into the UHPLC-MS/MS system (Agilent Technologies, Santa Clara, CA, USA).
The maximum concentration (Cmax) and the time to attain it (Tmax) were observed directly from the measured data. The elimination rate constant (Ke) was calculated by linear regression of the terminal points in a semi-log plot of the plasma concentration against time. The elimination half-life (t1/2) was calculated using the formula t1/2 = 0.693/Ke. The area under plasma concentration–time curve (AUC0→t) to the last measurable plasma concentration (Ct) was estimated by using the linear trapezoidal rule. The area under the plasma concentration–time curve to time infinity (AUC0→∞) was calculated as: AUC0→∞ = AUC0→t + Ct/Ke. The pharmacokinetic parameters of six analytes were reckoned by non-compartmental analysis using DAS 2.0 (Mathematical Pharmacology Professional Committee of China, Shanghai, China).

The nature of series [2]: Stability of analytes in rat plasma under various storage conditions. Particulars: for Stability Post-Preparation: 12 h after sample preparation at 4 °C; for Stability Short-Term / Stability Long-Term / Stability Three Freeze-Thaw: rat plasma; for Stability Short-Term: room temperature 4 h; for Stability Long-Term: storage for 2 weeks; for Stability Three Freeze-Thaw: three freeze–thaw cycles at −20 °C. It counts as in vitro ADME. Here is the method: The stability of six analytes in rat plasma was estimated under different storage conditions. […] Post-preparative stability of analytes also implied that there was no obvious degradation when samples were kept at 4 °C for 12 h. In addition, all compounds remained stable for two weeks at […].
The stability of six compounds in rat plasma including freeze and thaw stability (three freeze–thaw cycles at −20 °C), long-term stability (storage for 2 weeks at −80 °C), room temperature stability (storage for 4 h at ambient temperature), and post-preparation stability […] All stability testing QC samples were determined by using the calibration curve of freshly prepared standard samples.

The mark [3] stands for this setting: male, Sprague-Dawley, rat, plasma, po, 0.015 g/kg, read-out: Cmax.

Like-named read-outs stand apart in the source and are kept apart here.

One may read the Cmax as the peak of the concentration-time curve. The AUC(0-inf) is total exposure, with the tail of the curve extrapolated. The term AUC(0-t) denotes exposure summed from dosing to a finite time, without extrapolation to infinity. Low values mean less exposure, high ones more exposure. The Tmax is the time from dosing to the highest level. The half-life is the time in which the quantity being followed falls by half. A higher half-life goes with slow decline. As for `C[C@@H]1CC[C@]2(C(=O)O[C@@H]3O[C@H](CO)[C@@H](O)[C@H](O)[C@H]3O)CC[C@]3(C)C(=CC[C@@H]4[C@@]5(C)CC[C@H](O[C@@H]6OC[C@H](O)[C@H](O)[C@H]6O)C(C)(C)[C@@H]5CC[C@]43C)[C@@H]2[C@]1(C)O` [I, ziyuglycoside I], the Cmax in series [1] (setting [3]) was 745 ± 85.7 ng/mL. In series [1] (male, Sprague-Dawley), the total exposure AUC(0-inf) worked out at 3320 ± 429 ng·h/mL, the area under the curve AUC(0-t) worked out at 2880 ± 303 ng·h/mL, the Tmax turned out to be 0.92 ± 0.2 h and the half-life was 11.6 ± 3.07 h. Moreover, in series [1], the peak concentration (Cmax) worked out at 744.7 ± 85.7 ng/mL, the “time of first peak of mean plasma concentration-time curve (double-peak phenomenon)” value (from here on “time of first peak … (double-peak phenomenon)”) was 0.5 to 1.5 h and the “time of second peak of mean plasma concentration-time curve (double-peak phenomenon)” value (from here on “time of second peak … (double-peak phenomenon)”) lay within 4 to 8 h. Also, in series [2] (high QC spiked concentration), the “Stability Post-Preparation” value is −9.95 % RE, the “Stability Short-Term” value is on record as 2.44 % RE, the “Stability Long-Term” value is recorded as 2.03 % RE and the “Stability Three Freeze-Thaw” value was found to be 2.51 % RE. For the same compound, in series [2] (low QC spiked concentration), the “Stability Post-Preparation” value is −2.07 % RE, the “Stability Short-Term” value is 4.27 % RE, the “Stability Long-Term” value is recorded as 2.43 % RE and the “Stability Three Freeze-Thaw” value came to 6.07 % RE. Moreover, in series [2] (medium QC spiked concentration), the “Stability Post-Preparation” value was found to be 3.53 % RE, the “Stability Short-Term” value is 6.27 % RE, the “Stability Long-Term” value is on record as −6.57 % RE and the “Stability Three Freeze-Thaw” value is on record as 10.19 % RE.
As for `CC1CCC2(C(=O)OC3OC(CO)C(O)C(O)C3O)CCC3(C)C(=CCC4C5(C)CCC(O)C(C)(C)C5CCC43C)C2C1(C)O` [II, 3β,19α-dihydroxyurs-12-en-28-oic-acid 28-β-D-glucopyranosyl ester], in series [1] (setting [3]), the maximum concentration (Cmax) was found to be 527 ± 64 ng/mL. Besides, in series [1] (male, Sprague-Dawley), the total exposure AUC(0-inf) is 2660 ± 601 ng·h/mL, the AUC(0-t) is 2300 ± 417 ng·h/mL, the time of peak concentration (Tmax) turned out to be 0.83 ± 0.26 h and the half-life is 8.99 ± 3.04 h. Further, in series [1], the Cmax is reported as 526.6 ± 64.0 ng/mL, the “time of first peak … (double-peak phenomenon)” value lay in the range of 0.5 to 1.5 h and the “time of second peak … (double-peak phenomenon)” value was in the range of 4 to 8 h. Also, in series [2] (high QC spiked concentration), the “Stability Post-Preparation” value is listed as 3.04 % RE, the “Stability Short-Term” value was 2.47 % RE, the “Stability Long-Term” value is on record as 2.24 % RE and the “Stability Three Freeze-Thaw” value was 2.74 % RE. For the same compound, in series [2] (low QC spiked concentration), the “Stability Post-Preparation” value is reported as 5.22 % RE, the “Stability Short-Term” value is listed as −5.94 % RE, the “Stability Long-Term” value is recorded as −3.19 % RE and the “Stability Three Freeze-Thaw” value was 2.66 % RE. Also, in series [2] (medium QC spiked concentration), the “Stability Post-Preparation” value is listed as 4.11 % RE, the “Stability Short-Term” value was found to be 4.60 % RE, the “Stability Long-Term” value is recorded as 2.08 % RE and the “Stability Three Freeze-Thaw” value is listed as −2.95 % RE.
`CC1=C2C3=CCC4C5(C)CCC(OC6OCC(O)C(O)C6O)C(C)(C)C5CCC4(C)C3(C)CCC2(C(=O)OC2OC(CO)C(O)C(O)C2O)CCC1C` [III, 3β-[(α-L-arabinopyranosyl)oxy]-urs-12,18(19)-dien-28-oic acid β-D-glucopyranosyl ester]: in series [1] (setting [3]), the Cmax was 318 ± 47.6 ng/mL. In addition, in series [1] (male, Sprague-Dawley), the total exposure AUC(0-inf) came out at 1230 ± 193 ng·h/mL, the AUC(0-t) is 1140 ± 150 ng·h/mL, the Tmax was found to be 1.33 ± 0.26 h and the half-life is 6.86 ± 2.91 h. Also, in series [1], the peak concentration (Cmax) came out at 317.9 ± 47.6 ng/mL, the “time of first peak … (double-peak phenomenon)” value worked out at 0.25 h and the “time of second peak … (double-peak phenomenon)” value is recorded as under 1.5 h. In addition, in series [2] (high QC spiked concentration), the “Stability Post-Preparation” value worked out at 1.10 % RE, the “Stability Short-Term” value was −2.42 % RE, the “Stability Long-Term” value is 4.31 % RE and the “Stability Three Freeze-Thaw” value was −3.38 % RE. In series [2] (low QC spiked concentration), the “Stability Post-Preparation” value is listed as −1.34 % RE, the “Stability Short-Term” value is −5.54 % RE, the “Stability Long-Term” value is listed as 3.75 % RE and the “Stability Three Freeze-Thaw” value is −7.72 % RE. Also, in series [2] (medium QC spiked concentration), the “Stability Post-Preparation” value is reported as −2.48 % RE, the “Stability Short-Term” value was −7.66 % RE, the “Stability Long-Term” value is −5.18 % RE and the “Stability Three Freeze-Thaw” value is reported as −5.29 % RE.
Take `C[C@@H]1CC[C@]2(C(=O)O[C@@H]3O[C@H](CO)[C@@H](O)[C@H](O)[C@H]3O)CC[C@]3(C)C(=CC[C@@H]4[C@@]5(C)C[C@@H](O)[C@H](O)C(C)(C)[C@@H]5CC[C@]43C)[C@@H]2[C@]1(C)O` [IV, rosamultin]: the Cmax in series [1] (setting [3]) turned out to be 315 ± 22.5 ng/mL. For the same compound, in series [1] (male, Sprague-Dawley), the AUC(0-inf) was 1300 ± 193 ng·h/mL, the AUC(0-t) worked out at 1210 ± 120 ng·h/mL, the time of peak concentration (Tmax) worked out at 1.58 ± 0.2 h and the half-life was 7.32 ± 2.74 h. In series [1], this compound gave a Cmax of 314.5 ± 22.5 ng/mL. In series [2] (high QC spiked concentration), the “Stability Post-Preparation” value is listed as 3.95 % RE, the “Stability Short-Term” value is 4.55 % RE, the “Stability Long-Term” value is −6.75 % RE and the “Stability Three Freeze-Thaw” value is recorded as 2.07 % RE. In series [2] (low QC spiked concentration), the “Stability Post-Preparation” value was determined as 7.45 % RE, the “Stability Short-Term” value came out at 9.63 % RE, the “Stability Long-Term” value is on record as 4.88 % RE and the “Stability Three Freeze-Thaw” value came to 6.80 % RE. Besides, in series [2] (medium QC spiked concentration), the “Stability Post-Preparation” value was found to be 2.23 % RE, the “Stability Short-Term” value came out at 7.81 % RE, the “Stability Long-Term” value is 2.71 % RE and the “Stability Three Freeze-Thaw” value worked out at 3.84 % RE.
As for `CC1CCC2(C(=O)O)CCC3(C)C(=CCC4C5(C)C(O)C(O)C(O)C(C)(C)C5CCC43C)C2C1(C)O` (stereo not drawn) [V, 1β-hydroxyeuscaphic acid], the maximum concentration (Cmax) in series [1] (setting [3]) came out at 212 ± 11.8 ng/mL. For the same compound, in series [1] (male, Sprague-Dawley), the total exposure AUC(0-inf) stood at 794 ± 152 ng·h/mL, the AUC(0-t) amounted to 733 ± 94.1 ng·h/mL, the Tmax was 0.58 ± 0.2 h and the half-life was 7.35 ± 3.95 h. Moreover, in series [1], the Cmax amounted to 211.5 ± 11.8 ng/mL. Besides, in series [2] (high QC spiked concentration), the “Stability Post-Preparation” value was −3.03 % RE, the “Stability Short-Term” value stood at 2.56 % RE, the “Stability Long-Term” value was 3.06 % RE and the “Stability Three Freeze-Thaw” value is 2.28 % RE. Besides, in series [2] (low QC spiked concentration), the “Stability Post-Preparation” value was 8.48 % RE, the “Stability Short-Term” value is −4.77 % RE, the “Stability Long-Term” value worked out at 9.86 % RE and the “Stability Three Freeze-Thaw” value is −9.67 % RE. In addition, in series [2] (medium QC spiked concentration), the “Stability Post-Preparation” value is recorded as 5.23 % RE, the “Stability Short-Term” value is −3.67 % RE, the “Stability Long-Term” value is recorded as 6.95 % RE and the “Stability Three Freeze-Thaw” value is recorded as 3.99 % RE.
